Results taken from patent US10966978B2, “Dose and regimen for HDM2-p53 interaction inhibitors” (Novartis AG, priority 2016, dated 2021).
Read-outs that look alike come from different tables or passages of the source.

Test: Clinical PK of HDM201 in patients (non-compartmental and population PK), study HDM201X2101
Assay type: in vivo, human
Conditions: for AUC(0-t): read-out: AUClast (0-24 h), Geo Mean (% CV); for Cmax: read-out: Cmax, Geo Mean (% CV); for dose proportionality of PK (AUClast and Cmax): over the dose range studied, single and repeated doses
Procedure: Pharmacokinetic data have been evaluated throughout the course of the dose escalation. Two HDM201 drug variants have been evaluated during the course of the study (refer to the protocol for further details). […] Furthermore, an integrated analysis of all available HDM201 concentrations was conducted using a population approach. The PK of HDM201 was best described by a 1-compartment PK model with a delayed zero- and first-order absorption process, and a linear clearance. Body weight was identified as a statistically significant covariate on apparent central volume of distribution (Vc/F), in which Vc/F increased with increasing body weight.
Inter-patient variability (CV % Geo-mean) in exposure was generally low to moderate. Compartmental population PK modeling of NVP-HDM201 was used to estimate the individual average plasma concentration for Cycle 1 and to allow comparison with preclinical average concentration for tumor stasis derived by PK/PD tumor growth modeling.
The PK of HDM201 have been evaluated in the ongoing single agent Phase I clinical trial in patients with solid tumors and hematological malignancies (HDM201X2101). Patients have been treated with a single dose on Day 1 in a three-week cycle (q3w, regimen 1A), with a single dose on Day 1 and Day 8 in a four-week cycle (d1 and d8 of 4 w cycle, regimen 1B), or with daily dosing for the first 7 or 14 days in a four-week cycle (regimen 2C [q.d., 1 w on/3 w off] or regimen 2A [q.d., 2 w on/2 w off], respectively). PK assessments were conducted following single dose and repeated administration. Preliminary PK parameters from non-compartmental analysis of plasma concentration-time profiles are summarized by dose regimen and tumor type (data cut-off 1 Apr. 2016). PK parameters for Regimen 2A (Day 1 and 14 of Cycle 1 for doses from 1 to 20 mg) and Regimen 1A (Day 1 of Cycle 1 for doses from 12.5 to 350 mg) in solid tumor patients are summarized as representative of the PK for daily and less frequent dosing regimens (Tables 9, 10 and 11).
Following oral dosing (HDM201 capsule, fasted), the median time to reach maximum plasma concentrations ranged from 2.0 to 5.8 h across the dose range (2 to 350 mg). With the daily dosing regimen, HDM201 steady-state was generally reached by Day 8, and accumulation was less than 2-fold. […]
Furthermore, the individual PK data was best described by a 1-compartment PK model with a delayed zero- and first-order absorption process (data cut-off 1 Apr. 2016). […] Body weight was identified as a statistically significant covariate on Vc/F.

[1] = human, plasma, oral, 7.5 mg, Regimen 2A 7.5 mg daily, Day 14, solid malignancies, N = 2
[2] = human, plasma, oral, 20 mg, Regimen 2A 20 mg daily, Day 14, solid malignancies, N = 4
[3] = human, plasma, oral, 20 mg, Regimen 2A 20 mg, Day 1 single dose, solid malignancies, N = 5
[4] = human, plasma, oral, 250 mg, Regimen 1A 250 mg, Day 1 single dose, solid malignancies, N = 6
[5] = human, plasma, oral, 350 mg, Regimen 1A 350 mg, Day 1 single dose, solid malignancies, N = 5

Molecule `COc1ncc(-c2nc3c(n2C(C)C)[C@H](c2ccc(Cl)cc2)N(c2cc(Cl)cn(C)c2=O)C3=O)c(OC)n1` [HDM201, (S)-5-(5-Chloro-1-methyl-2-oxo-1,2-dihydro-pyridin-3-yl)-6-(4-chloro-phenyl)-2-(2,4-dimethoxy-pyrimidin-5-yl)-1-isopropyl-5,6-dihydro-1H-pyrrolo[3,4-d]imidazol-4-one] has an AUC(0-t) [1] of 222 ng·h/mL, a Cmax [1] of 36.1 ng/mL and a Tmax (human, plasma, oral, 7.5 mg, Regimen 2A 7.5 mg daily, Day 14, solid malignancies, N = 2, read-out: Tmax, median) of 3.9 h. The Cmax (human, plasma, oral, 7.5 mg, Regimen 2A 7.5 mg, Day 1 single dose, solid malignancies, N = 4) was 39 ng/mL, the Tmax (human, plasma, oral, 7.5 mg, Regimen 2A 7.5 mg, Day 1 single dose, solid malignancies, N = 4, read-out: Tmax, median) was 5.8 h and the Tmax (human, plasma, oral, 12.5 mg, Regimen 1A 12.5 mg, Day 1 single dose, solid malignancies, N = 1, read-out: Tmax, median) was 3.2 h. For the same molecule, the Tmax (human, plasma, oral, 15 mg, Regimen 2A 15 mg daily, Day 14, solid malignancies, N = 4, read-out: Tmax, median) was 3 h, the Tmax (human, plasma, oral, 15 mg, Regimen 2A 15 mg, Day 1 single dose, solid malignancies, N = 4, read-out: Tmax, median) was 3.1 h and the AUC(0-t) [2] was 1260 ng·h/mL. The Cmax [2] was 214 ng/mL, the Tmax (human, plasma, oral, 20 mg, Regimen 2A 20 mg daily, Day 14, solid malignancies, N = 4, read-out: Tmax, median) was 4 h and the AUC(0-t) [3] was 2300 ng·h/mL. The Cmax [3] was 164 ng/mL, the Tmax (human, plasma, oral, 20 mg, Regimen 2A 20 mg, Day 1 single dose, solid malignancies, N = 5, read-out: Tmax, median) was 2 h and the Cmax (human, plasma, oral, 25 mg, Regimen 1A 25 mg, Day 1 single dose, solid malignancies, N = 1) was 100 ng/mL. The Tmax (human, plasma, oral, 25 mg, Regimen 1A 25 mg, Day 1 single dose, solid malignancies, N = 1, read-out: Tmax, median) was 2.1 h, the Tmax (human, plasma, oral, 50 mg, Regimen 1A 50 mg, Day 1 single dose, solid malignancies, N = 4, read-out: Tmax, median) was 3 h and the half-life (human, plasma, oral, 50 mg, Regimen 1A 50 mg, Day 1 single dose, solid malignancies, N = 4, read-out: T½, Geo Mean (% CV) (converted)) was 11.8 h. It also gave a half-life (human, plasma, oral, 100 mg, Regimen 1A 100 mg, Day 1 single dose, solid malignancies, N = 3, read-out: T½, Geo Mean (% CV) (converted)) of 16.3 h, a Tmax (human, plasma, oral, 100 mg, Regimen 1A 100 mg, Day 1 single dose, solid malignancies, N = 4, read-out: Tmax, median) of 3.5 h and a half-life (human, plasma, oral, 200 mg, Regimen 1A 200 mg, Day 1 single dose, solid malignancies, N = 4, read-out: T½, Geo Mean (% CV) (converted)) of 15.1 h. For the same molecule, the Tmax (human, plasma, oral, 200 mg, Regimen 1A 200 mg, Day 1 single dose, solid malignancies, N = 5, read-out: Tmax, median) was 3 h, the half-life (human, plasma, oral, 250 mg, Regimen 1A 250 mg, Day 1 single dose, solid malignancies, N = 5, read-out: T½, Geo Mean (% CV) (converted)) was 15.3 h and the AUC(0-t) [4] was 23900 ng·h/mL. The Cmax [4] was 1070 ng/mL, the Tmax (human, plasma, oral, 250 mg, Regimen 1A 250 mg, Day 1 single dose, solid malignancies, N = 6, read-out: Tmax, median) was 3.5 h and the half-life (human, plasma, oral, 350 mg, Regimen 1A 350 mg, Day 1 single dose, solid malignancies, N = 4, read-out: T½, Geo Mean (% CV) (converted)) was 15.1 h. The AUC(0-t) [5] was 50500 ng·h/mL, the Cmax [5] was 1940 ng/mL and the Tmax (human, plasma, oral, 350 mg, Regimen 1A 350 mg, Day 1 single dose, solid malignancies, N = 5, read-out: Tmax, median) was 4.1 h. The half-life (human, plasma, oral, after Day 1 single dose (50-350 mg), read-out: Median half-life) was 13.7 to 23.1 h, the half-life (human, plasma, oral, after a single dose (50 to 350 mg), read-out: Mean T½) was 11.8 to 16.3 h and the Vd/F (human, plasma, oral, population PK, 1-compartment model, read-out: apparent volume of distribution of the central compartment (Vc/F), mean population estimate) was 119 L. The Tmax (human, plasma, po, across dose range 2 to 350 mg, read-out: median time to reach maximum plasma concentrations (Tmax)) was 2 to 5.8 h, the “dose proportionality of PK (AUClast and Cmax)” value was “approximately dose proportional” and the “dose proportionality of PK (AUClast and Cmax)” value (listed as NVP-HDM201) was “no major deviations from dose proportionality”. For the same molecule, the “inter-individual variability of CL/F” value (population PK) was 48%, the “inter-individual variability of Vc/F” value (population PK) was 30% and the “apparent oral clearance (CL/F), mean population estimate” value (population PK, 1-compartment model) was 6.18 L/h. The “patients with estimated average concentration per cycle near or above tumor stasis concentration” value (regimen 1B 120 mg, out of 9 patients) was 7.
